Reference: ChEMBL document CHEMBL4422610, “HDAC as onco target: Reviewing the synthetic approaches with SAR study of their inhibitors” (Eur J Med Chem, 2018)
pIC50: −log10 of the molar value. Each block holds one compound with its values, some of them ahead of it.

Columns and labels:
Histone deacetylase 1 = Histone deacetylase 1 (Homo sapiens, UniProt Q13547); test: Inhibition of human HDAC1 using fluorogenic HDAC substrate
Histone deacetylase 4 = Histone deacetylase 4 (Homo sapiens, UniProt P56524); test: Inhibition of human HDAC4 using fluorogenic HDAC substrate
Histone deacetylase 5 = Histone deacetylase 5 (Homo sapiens, UniProt Q9UQL6); test: Inhibition of human HDAC5 using fluorogenic HDAC substrate
[1] = biological target: T1, Protein deacetylase HDAC6 (Homo sapiens, UniProt Q9UBN7); test: Inhibition of human HDAC6 using fluorogenic HDAC substrate
T1 sequence (Q9UBN7 whole entry): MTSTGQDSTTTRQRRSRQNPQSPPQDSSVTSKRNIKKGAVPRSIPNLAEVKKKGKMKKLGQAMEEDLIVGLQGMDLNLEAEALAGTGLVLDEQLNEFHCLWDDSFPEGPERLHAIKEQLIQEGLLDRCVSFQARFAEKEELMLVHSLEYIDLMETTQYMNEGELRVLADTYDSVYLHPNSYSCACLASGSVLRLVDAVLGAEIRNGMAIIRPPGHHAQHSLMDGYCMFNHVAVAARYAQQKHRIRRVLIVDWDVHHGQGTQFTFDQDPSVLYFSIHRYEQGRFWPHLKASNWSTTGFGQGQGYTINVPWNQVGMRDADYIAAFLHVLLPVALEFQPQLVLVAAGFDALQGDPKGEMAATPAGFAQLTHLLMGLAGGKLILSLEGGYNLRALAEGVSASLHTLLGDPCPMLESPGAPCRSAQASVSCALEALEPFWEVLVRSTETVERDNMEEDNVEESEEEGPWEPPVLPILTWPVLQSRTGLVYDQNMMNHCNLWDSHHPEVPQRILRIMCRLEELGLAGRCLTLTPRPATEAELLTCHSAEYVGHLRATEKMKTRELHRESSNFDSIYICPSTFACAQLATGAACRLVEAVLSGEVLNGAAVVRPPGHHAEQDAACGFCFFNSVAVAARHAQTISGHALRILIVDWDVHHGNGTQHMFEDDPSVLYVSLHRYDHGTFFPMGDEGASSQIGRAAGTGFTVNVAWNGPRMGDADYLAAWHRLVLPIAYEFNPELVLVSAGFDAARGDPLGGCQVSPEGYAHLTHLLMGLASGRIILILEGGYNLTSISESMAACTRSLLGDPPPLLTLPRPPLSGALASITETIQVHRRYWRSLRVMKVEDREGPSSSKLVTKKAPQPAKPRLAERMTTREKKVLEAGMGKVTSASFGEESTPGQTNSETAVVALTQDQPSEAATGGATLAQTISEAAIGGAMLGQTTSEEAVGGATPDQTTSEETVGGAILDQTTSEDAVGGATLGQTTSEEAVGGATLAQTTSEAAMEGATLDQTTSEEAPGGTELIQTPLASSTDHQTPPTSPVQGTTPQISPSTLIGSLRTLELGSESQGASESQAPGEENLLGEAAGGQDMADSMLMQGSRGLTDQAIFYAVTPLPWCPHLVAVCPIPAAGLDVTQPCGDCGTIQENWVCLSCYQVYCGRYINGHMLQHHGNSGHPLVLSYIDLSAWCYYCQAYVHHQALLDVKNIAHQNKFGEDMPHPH

Histone deacetylase 7 = biological target: T2, Histone deacetylase 7 (Homo sapiens, UniProt Q8WUI4); test: Inhibition of human HDAC7 using fluorogenic HDAC substrate
T2 sequence (Q8WUI4 whole entry): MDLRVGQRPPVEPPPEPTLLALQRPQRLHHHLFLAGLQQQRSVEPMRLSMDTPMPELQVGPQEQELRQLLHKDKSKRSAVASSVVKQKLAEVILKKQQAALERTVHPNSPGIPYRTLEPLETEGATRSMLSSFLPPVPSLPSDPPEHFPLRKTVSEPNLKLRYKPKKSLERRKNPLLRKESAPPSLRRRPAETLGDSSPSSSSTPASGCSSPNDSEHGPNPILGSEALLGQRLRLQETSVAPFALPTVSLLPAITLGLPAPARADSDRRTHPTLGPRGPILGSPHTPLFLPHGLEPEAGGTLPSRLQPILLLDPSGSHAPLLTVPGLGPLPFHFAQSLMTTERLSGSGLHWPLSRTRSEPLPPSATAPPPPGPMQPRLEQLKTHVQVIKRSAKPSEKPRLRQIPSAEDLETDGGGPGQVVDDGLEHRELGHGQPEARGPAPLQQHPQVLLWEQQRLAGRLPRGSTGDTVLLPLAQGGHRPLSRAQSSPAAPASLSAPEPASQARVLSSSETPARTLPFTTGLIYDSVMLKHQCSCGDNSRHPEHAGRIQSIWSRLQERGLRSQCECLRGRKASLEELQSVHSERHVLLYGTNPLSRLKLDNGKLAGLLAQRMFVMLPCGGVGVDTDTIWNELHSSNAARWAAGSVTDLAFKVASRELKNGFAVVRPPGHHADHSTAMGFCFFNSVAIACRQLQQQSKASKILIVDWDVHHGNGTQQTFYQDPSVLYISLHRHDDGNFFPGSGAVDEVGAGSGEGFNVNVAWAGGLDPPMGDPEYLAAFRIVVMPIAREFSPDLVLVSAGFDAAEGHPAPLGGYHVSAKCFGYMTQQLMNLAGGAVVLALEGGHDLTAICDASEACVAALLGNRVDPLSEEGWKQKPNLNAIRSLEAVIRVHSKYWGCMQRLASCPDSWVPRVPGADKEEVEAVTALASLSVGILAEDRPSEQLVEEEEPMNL

Histone deacetylase 8 [2] = biological target: T3, Histone deacetylase 8 (Homo sapiens, UniProt Q9BY41); test: Inhibition of human HDAC8 using fluorogenic HDAC substrate
T3 sequence (Q9BY41 whole entry): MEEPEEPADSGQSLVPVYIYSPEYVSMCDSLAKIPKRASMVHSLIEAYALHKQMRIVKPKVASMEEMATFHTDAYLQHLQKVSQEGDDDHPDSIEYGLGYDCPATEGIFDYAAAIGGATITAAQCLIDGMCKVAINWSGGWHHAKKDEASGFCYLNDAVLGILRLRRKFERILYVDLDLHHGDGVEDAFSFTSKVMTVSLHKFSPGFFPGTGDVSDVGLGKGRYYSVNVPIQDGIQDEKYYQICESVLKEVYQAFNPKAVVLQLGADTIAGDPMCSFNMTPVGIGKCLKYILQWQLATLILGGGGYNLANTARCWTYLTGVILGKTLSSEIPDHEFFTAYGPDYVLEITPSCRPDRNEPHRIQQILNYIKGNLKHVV

Histone deacetylase 9 = Histone deacetylase 9 (Homo sapiens, UniProt Q9UKV0); test: Inhibition of human HDAC9 using fluorogenic HDAC substrate
[3] = biological target: T4, Polyamine deacetylase HDAC10 (Homo sapiens, UniProt Q969S8); test: Inhibition of human HDAC10 using fluorogenic HDAC substrate
T4 sequence (Q969S8 whole entry): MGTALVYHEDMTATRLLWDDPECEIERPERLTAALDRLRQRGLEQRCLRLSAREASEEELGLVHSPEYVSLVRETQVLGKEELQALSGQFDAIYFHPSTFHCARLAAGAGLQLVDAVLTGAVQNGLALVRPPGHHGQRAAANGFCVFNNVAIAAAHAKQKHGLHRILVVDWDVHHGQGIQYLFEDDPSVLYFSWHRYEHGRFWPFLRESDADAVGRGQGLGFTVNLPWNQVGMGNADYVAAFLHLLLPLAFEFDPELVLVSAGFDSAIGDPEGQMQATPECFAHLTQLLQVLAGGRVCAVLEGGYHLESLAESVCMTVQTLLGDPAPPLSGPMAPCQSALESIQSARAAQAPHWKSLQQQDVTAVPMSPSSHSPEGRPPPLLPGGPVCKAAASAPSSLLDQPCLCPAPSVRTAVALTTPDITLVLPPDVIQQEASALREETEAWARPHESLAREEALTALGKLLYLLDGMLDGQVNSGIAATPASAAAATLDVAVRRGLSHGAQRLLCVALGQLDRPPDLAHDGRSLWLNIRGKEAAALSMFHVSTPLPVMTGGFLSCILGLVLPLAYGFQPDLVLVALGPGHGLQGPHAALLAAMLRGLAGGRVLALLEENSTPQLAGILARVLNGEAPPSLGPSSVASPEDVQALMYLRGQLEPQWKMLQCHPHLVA

Histone deacetylase 11 = biological target: T5, Histone deacetylase 11 (Homo sapiens, UniProt Q96DB2); test: Inhibition of human HDAC11 using fluorogenic HDAC substrate
T5 sequence (Q96DB2 whole entry): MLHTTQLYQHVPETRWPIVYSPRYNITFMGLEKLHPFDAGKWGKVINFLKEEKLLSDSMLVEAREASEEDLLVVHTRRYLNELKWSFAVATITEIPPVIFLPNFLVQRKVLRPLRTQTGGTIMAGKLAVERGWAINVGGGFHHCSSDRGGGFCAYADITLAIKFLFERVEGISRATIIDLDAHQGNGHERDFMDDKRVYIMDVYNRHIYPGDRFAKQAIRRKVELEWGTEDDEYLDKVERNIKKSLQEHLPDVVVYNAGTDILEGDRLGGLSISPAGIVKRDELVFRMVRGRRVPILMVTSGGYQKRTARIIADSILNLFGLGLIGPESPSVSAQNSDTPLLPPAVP

MCF7 [4] = test: cells; assay type: functional, cell-based; conditions: Homo sapiens
Vero = test: cells; assay type: ADME, cell-based; conditions: Chlorocebus sabaeus
RWPE-1 = test: cells; assay type: ADME, cell-based; conditions: Homo sapiens
PC-3 = test: cells; assay type: functional, cell-based; conditions: Homo sapiens
MDA-MB-231 = test: cells; conditions: Homo sapiens
[5] = biological target: Protein deacetylase HDAC6 (Homo sapiens) (UniProt Q9UBN7); test: Inhibition of human HDAC6 at 100 uM relative to control
Histone deacetylase 8 [6] = biological target: T3, Histone deacetylase 8; test: Inhibition of human HDAC8 using ZMTFAL as substrate measured after 90 mins by fluorescence assay
A549 = test: cells; conditions: Homo sapiens
MCF7 [7] = test: cells; conditions: Homo sapiens
MKN-45 = test: cells; conditions: Homo sapiens

Chain of Histone deacetylase 5 (Q9UQL6 whole entry): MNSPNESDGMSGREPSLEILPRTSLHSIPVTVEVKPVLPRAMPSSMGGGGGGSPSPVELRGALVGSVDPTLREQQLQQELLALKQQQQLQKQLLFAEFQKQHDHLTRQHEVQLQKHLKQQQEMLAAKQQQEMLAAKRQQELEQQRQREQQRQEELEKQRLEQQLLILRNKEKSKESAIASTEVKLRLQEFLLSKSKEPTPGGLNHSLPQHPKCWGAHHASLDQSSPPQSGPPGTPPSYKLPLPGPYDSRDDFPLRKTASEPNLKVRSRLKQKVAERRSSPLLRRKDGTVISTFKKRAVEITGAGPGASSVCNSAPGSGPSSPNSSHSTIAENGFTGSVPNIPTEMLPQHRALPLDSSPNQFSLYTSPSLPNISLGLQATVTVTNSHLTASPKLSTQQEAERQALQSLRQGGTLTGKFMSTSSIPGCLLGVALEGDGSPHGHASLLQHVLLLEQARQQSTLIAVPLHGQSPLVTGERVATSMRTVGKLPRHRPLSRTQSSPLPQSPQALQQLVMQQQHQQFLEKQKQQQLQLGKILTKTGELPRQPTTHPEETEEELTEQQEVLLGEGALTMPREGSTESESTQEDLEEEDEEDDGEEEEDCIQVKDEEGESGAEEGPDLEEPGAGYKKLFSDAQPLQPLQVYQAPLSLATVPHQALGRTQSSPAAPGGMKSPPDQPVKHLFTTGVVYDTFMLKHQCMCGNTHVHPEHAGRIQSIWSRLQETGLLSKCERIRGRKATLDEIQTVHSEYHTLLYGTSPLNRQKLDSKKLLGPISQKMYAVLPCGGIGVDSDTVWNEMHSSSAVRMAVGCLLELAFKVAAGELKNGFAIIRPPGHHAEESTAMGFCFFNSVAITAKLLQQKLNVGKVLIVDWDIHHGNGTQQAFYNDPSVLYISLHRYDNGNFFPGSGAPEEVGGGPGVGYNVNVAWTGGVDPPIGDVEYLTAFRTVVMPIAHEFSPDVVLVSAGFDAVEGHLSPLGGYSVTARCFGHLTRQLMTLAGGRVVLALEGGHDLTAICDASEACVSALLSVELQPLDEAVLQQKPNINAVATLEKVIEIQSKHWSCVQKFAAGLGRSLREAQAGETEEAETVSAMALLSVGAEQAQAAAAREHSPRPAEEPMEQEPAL
Chain of Histone deacetylase 1 (Q13547 whole entry): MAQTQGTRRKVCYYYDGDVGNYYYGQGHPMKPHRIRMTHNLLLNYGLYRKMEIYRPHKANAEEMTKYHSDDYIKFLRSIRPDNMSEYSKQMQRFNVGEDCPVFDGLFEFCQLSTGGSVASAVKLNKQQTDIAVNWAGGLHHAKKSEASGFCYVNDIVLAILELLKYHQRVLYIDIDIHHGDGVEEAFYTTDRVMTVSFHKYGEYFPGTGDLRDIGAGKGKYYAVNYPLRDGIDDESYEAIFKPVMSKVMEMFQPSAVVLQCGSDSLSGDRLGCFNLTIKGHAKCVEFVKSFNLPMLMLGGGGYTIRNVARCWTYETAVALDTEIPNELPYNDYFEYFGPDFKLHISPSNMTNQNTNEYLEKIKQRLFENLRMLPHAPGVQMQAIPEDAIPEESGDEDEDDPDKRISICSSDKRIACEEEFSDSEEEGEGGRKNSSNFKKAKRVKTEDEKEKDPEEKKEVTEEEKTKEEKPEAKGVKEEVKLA
Chain of Histone deacetylase 9 (Q9UKV0 whole entry): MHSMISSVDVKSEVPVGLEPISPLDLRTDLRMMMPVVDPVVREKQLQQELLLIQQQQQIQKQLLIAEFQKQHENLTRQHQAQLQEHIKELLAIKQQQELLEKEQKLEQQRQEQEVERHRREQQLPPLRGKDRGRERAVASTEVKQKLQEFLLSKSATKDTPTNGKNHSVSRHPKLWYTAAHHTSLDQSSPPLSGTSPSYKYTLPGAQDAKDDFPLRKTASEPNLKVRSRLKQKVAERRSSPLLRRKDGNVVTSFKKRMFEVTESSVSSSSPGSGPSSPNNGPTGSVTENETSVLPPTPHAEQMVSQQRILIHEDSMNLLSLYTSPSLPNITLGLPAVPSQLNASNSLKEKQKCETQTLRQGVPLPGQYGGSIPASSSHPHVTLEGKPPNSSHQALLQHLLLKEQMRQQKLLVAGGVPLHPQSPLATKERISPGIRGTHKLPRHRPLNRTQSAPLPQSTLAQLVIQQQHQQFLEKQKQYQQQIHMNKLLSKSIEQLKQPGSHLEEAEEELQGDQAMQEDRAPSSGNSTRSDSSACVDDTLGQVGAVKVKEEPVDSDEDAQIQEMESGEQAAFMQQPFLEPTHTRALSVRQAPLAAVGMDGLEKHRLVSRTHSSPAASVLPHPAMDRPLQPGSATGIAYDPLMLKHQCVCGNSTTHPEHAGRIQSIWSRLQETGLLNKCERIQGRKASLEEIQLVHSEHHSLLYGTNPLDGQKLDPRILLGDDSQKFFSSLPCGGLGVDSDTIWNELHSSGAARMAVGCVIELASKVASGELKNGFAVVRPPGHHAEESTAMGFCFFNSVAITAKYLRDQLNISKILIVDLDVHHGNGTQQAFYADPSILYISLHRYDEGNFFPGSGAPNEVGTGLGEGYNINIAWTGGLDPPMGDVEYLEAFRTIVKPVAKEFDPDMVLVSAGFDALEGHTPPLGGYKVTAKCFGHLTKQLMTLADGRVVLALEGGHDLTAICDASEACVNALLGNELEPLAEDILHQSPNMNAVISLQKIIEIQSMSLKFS
Chain of Histone deacetylase 4 (P56524 whole entry): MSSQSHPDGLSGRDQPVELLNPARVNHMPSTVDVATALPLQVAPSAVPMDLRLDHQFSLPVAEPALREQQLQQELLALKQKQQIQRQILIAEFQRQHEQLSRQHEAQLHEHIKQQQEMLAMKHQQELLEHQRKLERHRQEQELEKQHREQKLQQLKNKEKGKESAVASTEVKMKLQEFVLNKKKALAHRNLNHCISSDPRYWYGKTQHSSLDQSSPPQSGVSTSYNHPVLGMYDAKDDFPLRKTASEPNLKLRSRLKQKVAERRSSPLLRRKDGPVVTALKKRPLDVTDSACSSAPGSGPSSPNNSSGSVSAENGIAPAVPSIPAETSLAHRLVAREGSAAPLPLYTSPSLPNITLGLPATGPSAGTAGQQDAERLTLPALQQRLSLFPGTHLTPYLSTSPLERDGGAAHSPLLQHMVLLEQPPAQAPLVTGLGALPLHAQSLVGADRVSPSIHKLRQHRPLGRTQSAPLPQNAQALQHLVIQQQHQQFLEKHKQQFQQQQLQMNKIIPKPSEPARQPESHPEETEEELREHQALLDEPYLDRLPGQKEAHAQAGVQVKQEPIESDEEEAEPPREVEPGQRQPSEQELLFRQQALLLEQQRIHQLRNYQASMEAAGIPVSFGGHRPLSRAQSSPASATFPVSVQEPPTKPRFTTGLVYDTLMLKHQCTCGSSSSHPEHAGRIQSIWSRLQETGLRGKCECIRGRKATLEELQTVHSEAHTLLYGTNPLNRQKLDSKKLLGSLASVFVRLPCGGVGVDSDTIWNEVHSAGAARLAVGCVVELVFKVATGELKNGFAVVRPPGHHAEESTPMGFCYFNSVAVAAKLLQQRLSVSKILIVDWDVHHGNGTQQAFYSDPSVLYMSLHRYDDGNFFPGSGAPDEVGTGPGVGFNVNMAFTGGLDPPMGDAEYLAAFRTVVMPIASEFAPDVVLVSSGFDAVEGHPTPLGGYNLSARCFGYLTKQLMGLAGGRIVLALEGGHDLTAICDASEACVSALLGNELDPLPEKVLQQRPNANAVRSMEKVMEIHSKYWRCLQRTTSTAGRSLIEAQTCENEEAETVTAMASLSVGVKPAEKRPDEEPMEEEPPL

Structure (SMILES): O=C(NO)c1ccc(CN2c3ccccc3C[C@@H]3CCCC[C@H]32)cc1
- pIC50 (Histone deacetylase 1): < 4.52
- pIC50 (Histone deacetylase 4): < 4.52
- pIC50 (Histone deacetylase 5): 4.57
- pIC50 [1]: 7.44
- pIC50 (Histone deacetylase 7): < 4.52
- pIC50 (Histone deacetylase 8 [2]): 5.28
- pIC50 (Histone deacetylase 9): 4.60
- pIC50 [3]: < 4.52
- pIC50 (Histone deacetylase 11): 5.82

Structure (SMILES): CC1(C)C(=O)N(c2ccc(C#N)c(C(F)(F)F)c2)C(=O)N1Cc1ccc(-c2cn(CCCCCCC(=O)NO)nn2)cc1
- pIC50 (MCF7 [4]): 5.37
- pIC50 (Vero): 4.96
- pIC50 (RWPE-1): 6.32
- pIC50 (PC-3): 5.48
- pIC50 (MDA-MB-231): 5.84

Structure (SMILES): CCCCCCC[C@H](OC(=O)[C@@H](CCCCN(O)C=O)NC(=O)c1nc(-c2cc(OC)ccc2O)oc1C)C(C)(C)C(=O)N[C@H]1CCCCN(O)C1=O [AMAMISTATIN A]
- pIC50 (A549): 6.25
- pIC50 (MCF7 [7]): 6.32
- pIC50 (MKN-45): 6.62

Results, then the compound that gave them:

- inhibition [5]: 30%
- pIC50 (Histone deacetylase 8 [6]): 4.56
Structure (SMILES): O=C(NO)c1ccc(NC(=S)N/N=C/c2ccccc2)cc1

- inhibition [5]: 23%
- pIC50 (Histone deacetylase 8 [6]): 4.71
Structure (SMILES): O=C(NO)c1ccc(NC(=S)N/N=C/c2ccc(F)cc2)cc1
